{"source": "patent US20030105165A1", "about": "“Gap junctions and EDHF” (priority 2001, published 2003)", "origin": "cited, not measured here", "test_system": "rabbit arteries", "conditions": "endothelium-, gap junction- and cAMP-dependent; cited from earlier work", "data": [{"smiles": "CCCCC/C=C\\C/C=C\\C/C=C\\CC1OC1CCCC(=O)O", "note": "(stereo not shown) [5,6-EET]", "values": [{"measurement": "Relaxation of rabbit arteries by EET regioisomers", "value": "evokes relaxations"}]}]}
